From publication PMC3670925, “Extracellular Modulation of the Silkmoth Sex Pheromone Receptor Activity by Cyclic Nucleotides” (PLoS ONE, 2013)

Experiments:
Format in all cases: cell-based
[1] = target: T1, AgOr2 (Anopheles gambiae, UniProt Q8WTE6); assay: two-electrode voltage clamp in Xenopus oocytes, […]
T1 construct: gene OR2; with AgOrco

[2] = target: T2, BmOr-1 (Bombyx mori, UniProt Q5WA61); assay: two-electrode voltage clamp in Xenopus oocytes, dose-response
T2 construct: with BmOrco
T2 sequence (Q5WA61 1-430): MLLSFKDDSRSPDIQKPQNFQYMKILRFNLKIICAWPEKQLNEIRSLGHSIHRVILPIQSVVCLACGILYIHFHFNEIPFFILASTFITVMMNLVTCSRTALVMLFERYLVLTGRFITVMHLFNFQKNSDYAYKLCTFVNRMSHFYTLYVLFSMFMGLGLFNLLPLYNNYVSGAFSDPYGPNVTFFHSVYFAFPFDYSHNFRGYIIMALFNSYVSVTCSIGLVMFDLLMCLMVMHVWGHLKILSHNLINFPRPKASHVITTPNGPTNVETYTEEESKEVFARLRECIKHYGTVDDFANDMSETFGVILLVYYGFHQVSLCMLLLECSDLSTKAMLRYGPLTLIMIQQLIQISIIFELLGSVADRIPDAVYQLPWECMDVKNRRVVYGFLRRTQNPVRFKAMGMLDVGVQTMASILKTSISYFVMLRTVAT
T2 sequence (Q7YT34 1-472 partner): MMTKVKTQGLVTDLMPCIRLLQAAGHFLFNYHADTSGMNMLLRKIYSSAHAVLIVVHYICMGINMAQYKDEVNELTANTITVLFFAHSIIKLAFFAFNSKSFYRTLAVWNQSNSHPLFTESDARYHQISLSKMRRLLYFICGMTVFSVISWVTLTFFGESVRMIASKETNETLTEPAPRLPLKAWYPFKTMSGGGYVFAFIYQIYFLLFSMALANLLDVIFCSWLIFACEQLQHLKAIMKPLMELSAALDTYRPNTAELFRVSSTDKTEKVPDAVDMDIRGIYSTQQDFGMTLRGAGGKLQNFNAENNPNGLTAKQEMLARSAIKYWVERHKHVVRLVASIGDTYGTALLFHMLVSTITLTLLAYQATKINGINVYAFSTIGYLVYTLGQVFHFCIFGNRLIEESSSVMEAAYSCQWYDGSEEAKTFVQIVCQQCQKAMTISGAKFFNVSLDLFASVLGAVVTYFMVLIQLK

[3] = target: T3, Or47a (Drosophila melanogaster, UniProt P81921); assay: two-electrode voltage clamp in Xenopus oocytes, […]
T3 construct: with Orco
T3 sequence (P81921 1-385): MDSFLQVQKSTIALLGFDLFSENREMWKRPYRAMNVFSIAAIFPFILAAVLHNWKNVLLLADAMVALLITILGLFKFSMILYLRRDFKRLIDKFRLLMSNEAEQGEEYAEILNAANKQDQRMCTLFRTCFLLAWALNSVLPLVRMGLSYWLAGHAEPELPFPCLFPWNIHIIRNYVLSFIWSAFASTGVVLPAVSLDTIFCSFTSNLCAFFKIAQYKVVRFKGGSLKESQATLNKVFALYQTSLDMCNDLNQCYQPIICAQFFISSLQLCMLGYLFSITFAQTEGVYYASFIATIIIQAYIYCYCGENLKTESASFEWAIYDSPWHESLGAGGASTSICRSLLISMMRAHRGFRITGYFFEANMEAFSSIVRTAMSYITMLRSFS
T3 sequence (Q9VNB5 1-486 partner): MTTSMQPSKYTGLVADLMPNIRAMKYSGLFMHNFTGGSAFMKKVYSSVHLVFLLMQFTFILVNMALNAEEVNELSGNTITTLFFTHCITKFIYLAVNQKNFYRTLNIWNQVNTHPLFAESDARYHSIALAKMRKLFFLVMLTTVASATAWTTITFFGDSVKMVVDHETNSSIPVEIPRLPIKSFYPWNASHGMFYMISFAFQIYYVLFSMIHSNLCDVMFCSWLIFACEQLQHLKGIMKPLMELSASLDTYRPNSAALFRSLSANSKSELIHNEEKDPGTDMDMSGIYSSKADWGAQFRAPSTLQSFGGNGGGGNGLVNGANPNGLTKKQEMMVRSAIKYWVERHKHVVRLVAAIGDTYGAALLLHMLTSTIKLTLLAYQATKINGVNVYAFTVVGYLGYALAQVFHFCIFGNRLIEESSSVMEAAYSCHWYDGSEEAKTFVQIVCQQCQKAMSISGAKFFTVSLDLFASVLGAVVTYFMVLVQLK

T1 sequence (Q8WTE6 whole entry): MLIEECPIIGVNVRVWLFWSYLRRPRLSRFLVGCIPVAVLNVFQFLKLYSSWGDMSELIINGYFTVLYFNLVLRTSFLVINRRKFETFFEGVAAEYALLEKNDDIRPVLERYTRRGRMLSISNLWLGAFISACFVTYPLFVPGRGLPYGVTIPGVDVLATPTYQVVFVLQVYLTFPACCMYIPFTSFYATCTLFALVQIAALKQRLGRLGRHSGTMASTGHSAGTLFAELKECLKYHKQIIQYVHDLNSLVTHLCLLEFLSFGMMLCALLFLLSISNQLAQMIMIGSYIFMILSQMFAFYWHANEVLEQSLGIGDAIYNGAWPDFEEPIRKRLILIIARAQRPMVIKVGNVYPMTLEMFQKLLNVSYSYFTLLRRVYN

Cc1ccccc1O [2-methylphenol] was tested, and the “two-electrode voltage clamp in Xenopus oocytes, 100 μM” value [1] was “oocytes expressing various insect Or-Orco complex in response to their cognate ligands and cyclic nucleotide reagents”.
CCC/C=C\C=C\CCCCCCCCCO [bombykol] gave an EC50 [2] of 8.2 µM.
For CCCCCOC(C)=O [pentylacetate], the “two-electrode voltage clamp in Xenopus oocytes, 100 μM” value [3] was “oocytes expressing various insect Or-Orco complex in response to their cognate ligands and cyclic nucleotide reagents”.
